Reference: patent publication US8466162B2, “5-alkynyl-pyridines” (Boehringer Ingelheim International GmbH, priority 2011, dated 2013)

Assays:
PI3Kalpha = biological target: T1, PI3Kalpha (Homo sapiens, UniProt P42336); assay: Inhibition of PI3Kalpha-induced PIP-2 phosphorylation (filter-binding assay, 33P-ATP); type: biochemical; conditions: PI3 Kinase alpha (p85alpha/His-p110alpha), 1 μM ATP; read-out: IC50 PI3Kα
T1 construct: His (N); made in house; host or cells: SF9 insect cells (baculovirus co-infection)
Procedure: Biological Methods Inhibition of PI3Kalpha-Induced PIP-2 Phosphorylation
See also J. A. Engelman, Nature Reviews Cancer, 2009, 9, 550-562; A. Carnero, Expert Opin. Investig. Drugs, 2009, 18, 1265-1277 and P. Liu et al., Nature Reviews Drug Discovery, 2009, 8, 627-64.
Method Type: Filter-Binding-Assay
Aliquoted in desired amounts and stored at −80° C. […] Assay Procedure
The substrate-containing lipid vesicles are dissolved to a concentration of 0.637 mg lipid blend/ml assay buffer (with BSA, freshly added) in 50 ml Falcon ->keep on ice, followed by ultrasonication (pulse of 15 sec followed by a pause of 10 sec, 4×). Compounds are serially diluted in assay buffer+6% DMSO and 10 μl of each dilution is added per well of a 96-well plate (compounds are tested in duplicates) and mixed with 30 μl of the lipid vesicles containing PDGFR-Peptide (0.5 μM final) and PI3K alpha (25 ng/well final). The mixture is then incubated for 20 minutes at room temperature.
Subsequently, 20 μl of assay buffer containing 3 μM cold ATP and 0.5 μCi/20 μl 33P-ATP are added. The plates are then incubated at room temperature for 120 minutes (shaking with 300 rpm).
The reaction mix is transferred onto filter plates using “filtermate harvester” from Packard: filter plates are rinsed with PBS, then the reaction mix is filtered onto the filter plate, washed 5 times with PBS and are allowed to dry for 30-60 minutes at 50° C. The plate bottom is sealed with Perkin Elmer white adhesive foil and 25 μl/well Microscint0 are added, the top is covered with transparent adhesive foil and the plate is measured with Wallac Trilux 1450 Microbeta Counter.
As positive control serve wells containing vehicle controls (1% DMSO in assay buffer), showing non-inhibited kinase activity (high values). Wells containing assay buffer instead of enzyme can serve as control for background activity (low values).
Calculate IC50 values using the Smiley program (based on GrapPad Prism)

H460 cells = assay: alamarBlue H460 cell assay (antiproliferative/cytotoxicity); type: cell-based; conditions: NCI-H460; H460 human lung carcinoma cells
Source text: (§1) The H460, MB453, U87, MCF7 and BT474 alamarBlue cell assays provide EC50 values indicative of the antiproliferative or cytotoxic effects of the compounds to respectively the H460 (human non small cell line cancer), MB-453 (breast cancer cell line), U87 (glioblastoma cell line), MCF7 (breast cancer cell line) and BT474 (breast cancer cell line). As known in the field, antiproliferative or cytotoxic effect against this cell lines would be expected to be indicative of activity in treating lung, breast and brain cancers. See R. Marone R et al. Biochim. Biophys. Acta. 2008 January; 1784(1):159-85. S. Yaguchi et al., J. Natl. Cancer Inst. 2006 Apr. 19; 98(8):545-56.
(§2) Method Type: Antiproliferative/Cytotoxicity
(§3) alamarBlue® is designed to provide a rapid and sensitive measure of cell proliferation and cytotoxicity in various human and animal cell lines. The assay is based on the reduction of alamarBlue in the reducing environment of living (metabolically active) cells. In the presence of added cytotoxic or antiproliferative compounds, the innate metabolic activity ceases.
(§4) AlamarBlue is soluble and stable in culture medium. Measurements are made fluorometrically by exciting at 530-560 nm and measuring emission at 590 nm. In reporting percent alamarBlue reduction by monitoring fluorescence, data are expressed as fluorescence emission intensity units as a function of time of incubation.
(§5) 3. Equipment • 96-well plates, flat bottom (Falcon, Cat. No.: 353072) • 96-well plates, U-shaped (Costar, Cat. No.: 3799) • CO2-Incubator • Microplate Reader, Spectramax Plus, Molecular Devices 4. Typical Procedure • Day 0: Seed 3000 BT-474 cells (IMDM/5% FCS, 1% NEAA, 1% Sodiumpyruvat) in 150 μl medium into a 96-well plate, flat bottom (include mediumblank). Incubate plates at 37° C. in a CO2 incubator overnight. • Day 1: Dilute compounds to a concentration 40 μM ->1:3 in medium, 10 dilution steps, in 96-well plates. • Add 50 μl per well of each dilution (total volume per well 200 μl; final conc. of cpds: 10 μM ->1:3). If required, test further dilutions. • All concentrations are tested in duplicates. • Controls: Cells w/o cpd. (+50 μl medium/DMSO). • Cells are incubated with compounds for 5-6 days. • Day 6 or 7: Add 25 μl of alamarBlue solution to each well and incubate for 8 hours at 37° C. Measure fluorescence by exciting at 530-560 nm and measuring emission at 590 nm 5. Evaluation • Subtract average value for medium blank from sample readings • Calculate EC50 using GraphPad Prism (Fifty)

MCF7 cells = assay: alamarBlue MCF7 cell assay (antiproliferative/cytotoxicity); type: cell-based; conditions: MCF7 human breast cancer cell line
Source text: as §1, §2, §3, §4, §5

BT474 cells = assay: alamarBlue BT474 cell assay (antiproliferative/cytotoxicity); type: cell-based; conditions: BT-474 human breast cancer cell line, 5-6 days incubation
Source text: as §1, §2, §3, §4, §5

T1 sequence (P27986 whole entry): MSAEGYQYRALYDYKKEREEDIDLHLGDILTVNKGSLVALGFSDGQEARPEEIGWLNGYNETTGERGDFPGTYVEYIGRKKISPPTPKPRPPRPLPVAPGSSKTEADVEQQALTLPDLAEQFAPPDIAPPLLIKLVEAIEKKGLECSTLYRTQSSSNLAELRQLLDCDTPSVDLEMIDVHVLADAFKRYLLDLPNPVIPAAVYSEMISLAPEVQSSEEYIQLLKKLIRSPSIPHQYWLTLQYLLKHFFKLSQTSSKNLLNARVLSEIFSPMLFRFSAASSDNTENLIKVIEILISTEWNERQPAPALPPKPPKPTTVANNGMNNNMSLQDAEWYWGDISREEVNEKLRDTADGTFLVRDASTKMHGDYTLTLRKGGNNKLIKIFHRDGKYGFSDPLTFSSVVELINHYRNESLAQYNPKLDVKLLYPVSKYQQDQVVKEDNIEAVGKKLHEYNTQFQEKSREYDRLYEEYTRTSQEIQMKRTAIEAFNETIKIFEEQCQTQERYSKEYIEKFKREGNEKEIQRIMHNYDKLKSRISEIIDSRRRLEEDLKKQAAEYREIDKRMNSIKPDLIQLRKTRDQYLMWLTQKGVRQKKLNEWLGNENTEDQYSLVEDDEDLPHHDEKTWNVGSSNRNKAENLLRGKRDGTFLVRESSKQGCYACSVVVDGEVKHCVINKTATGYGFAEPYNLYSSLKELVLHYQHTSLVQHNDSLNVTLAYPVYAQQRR
T1 sequence (P42336 whole entry): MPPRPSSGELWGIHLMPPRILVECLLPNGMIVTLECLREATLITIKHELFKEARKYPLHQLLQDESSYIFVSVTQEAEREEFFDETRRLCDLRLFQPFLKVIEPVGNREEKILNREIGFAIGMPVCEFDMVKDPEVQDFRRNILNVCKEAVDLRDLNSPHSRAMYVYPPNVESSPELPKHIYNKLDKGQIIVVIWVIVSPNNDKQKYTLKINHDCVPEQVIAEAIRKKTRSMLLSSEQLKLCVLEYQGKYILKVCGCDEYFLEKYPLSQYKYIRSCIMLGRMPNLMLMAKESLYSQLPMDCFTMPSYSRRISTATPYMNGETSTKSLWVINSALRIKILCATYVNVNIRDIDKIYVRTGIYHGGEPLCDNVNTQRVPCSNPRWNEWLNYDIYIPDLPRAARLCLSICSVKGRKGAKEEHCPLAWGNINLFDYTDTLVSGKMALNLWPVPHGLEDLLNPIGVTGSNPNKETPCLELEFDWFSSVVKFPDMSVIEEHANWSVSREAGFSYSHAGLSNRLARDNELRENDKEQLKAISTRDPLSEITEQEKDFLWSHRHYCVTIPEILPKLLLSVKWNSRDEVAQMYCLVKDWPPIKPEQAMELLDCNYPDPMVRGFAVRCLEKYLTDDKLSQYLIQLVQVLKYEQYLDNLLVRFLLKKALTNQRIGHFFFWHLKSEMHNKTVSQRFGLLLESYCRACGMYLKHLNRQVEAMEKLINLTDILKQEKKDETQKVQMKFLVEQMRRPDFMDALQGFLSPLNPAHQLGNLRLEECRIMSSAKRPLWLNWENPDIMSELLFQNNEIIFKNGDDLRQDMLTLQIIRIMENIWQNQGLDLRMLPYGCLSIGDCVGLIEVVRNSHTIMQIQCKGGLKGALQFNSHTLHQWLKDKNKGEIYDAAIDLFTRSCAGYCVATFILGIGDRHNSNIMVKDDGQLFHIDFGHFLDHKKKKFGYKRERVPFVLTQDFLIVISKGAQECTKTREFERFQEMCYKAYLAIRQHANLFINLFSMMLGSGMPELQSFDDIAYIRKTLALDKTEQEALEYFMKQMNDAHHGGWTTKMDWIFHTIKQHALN

| SMILES | IC50 (PI3Kalpha) [nM] | EC50 (H460 cells) [nM] | EC50 (MCF7 cells) [nM] | EC50 (BT474 cells) [nM] |
| --- | --- | --- | --- | --- |
| CCc1nc(N)nc(-c2cccnc2)c1C#Cc1cnc(C)c(NS(C)(=O)=O)c1 [Example 12, N-[5-(2-Amino-4-ethyl-6-pyridin-3-yl-pyrimidin-5-ylethynyl)-2-methyl-pyridin-3-yl]-methanesulfonamide] | 2 | 1240 |  |  |
| CCc1nc(N)nc(-c2ccc(C3CC3)nc2)c1C#Cc1cnc(C)c(NS(C)(=O)=O)c1 [Example 13, N-{5-[2-Amino-4-(6-cyclopropyl-pyridin-3-yl)-6-ethyl-pyrimidin-5-ylethynyl]-2-methyl-pyridin-3-yl}-methanesulfonamide] | 0.74 | 141 | 24 | 132 |
| CCc1nc(N)nc(-c2ccc(C)nc2)c1C#Cc1cnc(C)c(NS(C)(=O)=O)c1 [Example 14, N-{5-[2-Amino-4-ethyl-6-(6-methyl-pyridin-3-yl)-pyrimidin-5-ylethynyl]-2-methyl-pyridin-3-yl}-methanesulfonamide] | 1 | 305 | 16 | 89 |
| CCc1nc(N)nc(-c2ccnc(C)c2)c1C#Cc1cnc(C)c(NS(C)(=O)=O)c1 [Example 15, N-{5-[2-Amino-4-ethyl-6-(2-methyl-pyridin-4-yl)-pyrimidin-5-ylethynyl]-2-methyl-pyridin-3-yl}-methanesulfonamide] | 0.95 | 294 | 40 | 107 |
| CCc1nc(N)nc(-c2cccc(F)c2)c1C#Cc1cnc(C)c(NS(C)(=O)=O)c1 [Example 16, N-{5-[2-Amino-4-ethyl-6-(3-fluoro-phenyl)-pyrimidin-5-ylethynyl]-2-methyl-pyridin-3-yl}-methanesulfonamide] | 2 | 337 |  |  |
| CCc1nc(N)nc(-c2ccccc2)c1C#Cc1cnc(C)c(NS(C)(=O)=O)c1 [Example 17, N-[5-(2-Amino-4-ethyl-6-phenyl-pyrimidin-5-ylethynyl)-2-methyl-pyridin-3-yl]-methanesulfonamide] | 2 | 172 |  |  |
| CCc1nc(N)nc(-c2ccc(CN3CCOCC3)cc2)c1C#Cc1cnc(C)c(NS(C)(=O)=O)c1 [Example 18, N-{5-[2-Amino-4-ethyl-6-(4-morpholin-4-ylmethyl-phenyl)-pyrimidin-5-ylethynyl]-2-methyl-pyridin-3-yl}-methanesulfonamide] | 2 |  | 118 | 260 |
| CCc1nc(N)nc(-c2cccc(CN(C)C)c2)c1C#Cc1cnc(C)c(NS(C)(=O)=O)c1 [Example 19, N-{5-[2-Amino-4-(3-dimethylaminomethyl-phenyl)-6-ethyl-pyrimidin-5-ylethynyl]-2-methyl-pyridin-3-yl}-methanesulfonamide] | 6 |  | 313 | 806 |
| CCS(=O)(=O)Nc1cc(C#Cc2c(C)nc(N)nc2-c2ccnc(C)c2)cnc1C [Example 20, Ethanesulfonic acid {5-[2-amino-4-methyl-6-(2-methyl-pyridin-4-yl)-pyrimidin-5-ylethynyl]-2-methyl-pyridin-3-yl}-amide] | 14 | 1820 |  |  |
| CCc1ncnc(-c2ccc(OC)c(OC)c2C)c1C#Cc1cnc(C)c(NS(C)(=O)=O)c1 [Example 24, N-{5-[4-(3,4-Dimethoxy-2-methyl-phenyl)-6-ethyl-pyrimidin-5-ylethynyl]-2-methyl-pyridin-3-yl}-methanesulfonamide] | 28 |  |  |  |
| CCc1nc(N)nc(-c2cccc(CN(C)C)c2)c1C#Cc1cnc(C)c(NS(=O)(=O)c2ccc(F)cc2F)c1 [Example 35, N-{5-[2-Amino-4-(3-dimethylaminomethyl-phenyl)-6-ethyl-pyrimidin-5-ylethynyl]-2-methyl-pyridin-3-yl}-2,4-difluoro-benzenesulfonamide] | 2 |  |  |  |
| CCc1ncnc(-c2c(C)cccc2C)c1C#Cc1cnc(C)c(NS(C)(=O)=O)c1 [Example 58, N-{5-[4-(2,6-Dimethyl-phenyl)-6-ethyl-pyrimidin-5-ylethynyl]-2-methyl-pyridin-3-yl}-methanesulfonamide] | 380 |  |  |  |
| CCc1ncnc(-c2ccccc2C)c1C#Cc1cnc(C)c(NS(C)(=O)=O)c1 [Example 60, N-[5-(4-Ethyl-6-o-tolyl-pyrimidin-5-ylethynyl)-2-methyl-pyridin-3-yl}-methanesulfonamide] | 37 |  |  |  |
| CCc1ncnc(-c2cc(C#N)ccc2F)c1C#Cc1cnc(C)c(NS(C)(=O)=O)c1 [Example 66, N-{5-[4-(5-Cyano-2-fluoro-phenyl)-6-ethyl-pyrimidin-5-ylethynyl]-2-methyl-pyridin-3-yl}-methanesulfonamide] | 34 |  |  |  |
| CCc1ncnc(-c2cc(C(F)(F)F)ccc2F)c1C#Cc1cnc(C)c(NS(C)(=O)=O)c1 [Example 67, N-{5-[4-Ethyl-6-(2-fluoro-5-trifluoromethyl-phenyl)-pyrimidin-5-ylethynyl]-2-methyl-pyridin-3-yl}-methanesulfonamide] | 46 |  |  |  |
| CCc1ncnc(-c2cc(C(F)(F)F)ccc2OC)c1C#Cc1cnc(C)c(NS(C)(=O)=O)c1 [Example 68, N-{5-[4-Ethyl-6-(2-methoxy-5-trifluoromethyl-phenyl)-pyrimidin-5-ylethynyl]-2-methyl-pyridin-3-yl}-methanesulfonamide] | 136 |  |  |  |
| CCc1ncnc(-c2cc(CN)ccc2F)c1C#Cc1cnc(C)c(NS(C)(=O)=O)c1 [Example 77, N-{5-[4-(5-Aminomethyl-2-fluoro-phenyl)-6-ethyl-pyrimidin-5-ylethynyl]-2-methyl-pyridin-3-yl}-methanesulfonamide] | 150 |  |  |  |
| CCc1ncnc(-c2cccc(CN)c2F)c1C#Cc1cnc(C)c(NS(C)(=O)=O)c1 [Example 79, N-{5-[4-(3-Aminomethyl-2-fluoro-phenyl)-6-ethyl-pyrimidin-5-ylethynyl]-2-methyl-pyridin-3-yl}-methanesulfonamide] | 44 |  |  |  |
| CCc1ncnc(-c2ccc(OC)c(OC)c2OC)c1C#Cc1cnc(C)c(NS(C)(=O)=O)c1 [Example 80, N-{5-[4-Ethyl-6-(2,3,4-trimethoxy-phenyl)-pyrimidin-5-ylethynyl]-2-methyl-pyridin-3-yl}-methanesulfonamide] | 43 |  |  |  |
| CCc1ncnc(-c2ccnc(C)c2)c1C#Cc1cnc(C)c(NS(=O)(=O)c2ccc(F)cc2Cl)c1 [Example 90, 2-Chloro-N-{5-[4-ethyl-6-(2-methyl-pyridin-4-yl)-pyrimidin-5-ylethynyl]-2-methyl-pyridin-3-yl}-4-fluoro-benzenesulfonamide] | 2 |  |  |  |
| CCc1ncnc(-c2ccnc(C)c2)c1C#Cc1cnc(C)c(NS(=O)(=O)c2ccc(Br)cc2C)c1 [Example 97, 4-Bromo-N-{5-[4-ethyl-6-(2-methyl-pyridin-4-yl)-pyrimidin-5-ylethynyl]-2-methyl-pyridin-3-yl}-2-methyl-benzenesulfonamide] | 12 |  |  | 1530 |
